Measured values reported in article PMC12722308, “A phase 1 study of orally administered 5-fluoro-2’-deoxycytidine with tetrahydrouridine in patients with refractory solid tumors” (Cancer Chemotherapy and Pharmacology, 2025).

What was measured:
[1] = Urinary excretion by LC-MS/MS; format: in vivo, human
Protocol: Blood specimens for PK analysis were collected on Cycle 1 Day 1 (C1D1) prior to THU administration and then at 15, 30, and 45 min and 1, 2, 3, 4, 5, and 6 h after THU administration, as well as on C1D2 and C1D3 prior to and 2 h after THU administration. Urine specimens for PK analysis were collected on C1D1 prior to treatment and then at every void from 0 to 24 h after THU administration. All specimens for PK analysis were processed and analyzed by LC-MS/MS as described previously, and Phoenix WinNonlin software was used for data analysis.

[2] = test system: p16-expressing cytokeratin-positive (CK+) CTCs; test: CellSearch analysis of CTC p16 expression, CK+ CTCs; format: in vivo, human; conditions: 23 of 30 evaluable patients; oral FdCyd + THU
Protocol: (§1) Each blood specimen for CTC analysis (7.5 mL) was collected into a 10-mL CellSave preservative tube (Menarini Silicon Biosystems). Specimens were collected pre-treatment and then 6 h after THU administration on C1D1; prior to THU administration on […] and either C1D8 or […] (at the end of the first round of drug administration); on day 1 of cycle 2 and all subsequent cycles; and optionally at time of progression. Blood sample collection for CTC analysis was performed relative to the morning dose of THU for patients on the BID dose levels (DL10-11). CTC samples were processed and analyzed for p16, cytokeratin, and vimentin as described previously. Serial baseline blood specimens (C1D1 pre, C1D1 post, and […]) were obtained in light of baseline variability in CTC counts and p16 expression, and patients were considered assessable for cytokeratin-positive (CK^+) CTC p16 response if at least one of these baseline specimens (i.e., C1D1 pre, C1D1 post, and/or […]) and at least one post-treatment specimen (collected C2D1 or later) each contained ≥ 6 CTCs, as described. For patients with multiple baseline specimens, the specimen with the highest frequency of p16-positive CTCs was considered “baseline,” as described.

[3] = test system: p16-expressing vimentin-positive (V+) CTCs; test: CellSearch analysis of CTC p16 expression, V+ CTCs; format: in vivo, human; conditions: 2 of the 22 evaluable patients; oral FdCyd + THU
Protocol: as §1

DNA methylation = test system: DNA methylation; set-up: method as in PMID 2425957; conditions: preclinical data; 1 µM = 245 ng/mL; cited from earlier work
[4] = cited from earlier work

## Nc1nc(=O)n([C@H]2C[C@H](O)[C@@H](CO)O2)cc1F [FdCyd, 5-fluoro-2’-deoxycytidine]
[1]; All FdCyd doses + THU 3000 mg, N=6, geom. mean (geom. SD)
  FdCyd urinary excretion over 0-24 hours of day 1: 0.083 (2.2) % dose
[1]; All FdCyd doses + THU 6000 mg, N=3, geom. mean (geom. SD)
  FdCyd urinary excretion over 0-24 hours of day 1: 0.11 (2.6) % dose
[1]; DL5-9: FdCyd 160 mg + THU 3000 mg, N=6, geom. mean (geom. SD)
  FdCyd urinary excretion over 0-24 hours of day 1: 0.083 (2.2) % dose
[1]; DL10: FdCyd 60 mg + THU 6000 mg, N=2, geom. mean (geom. SD)
  FdCyd urinary excretion over 0-24 hours of day 1: 0.15 (3.2) % dose
[1]; DL11: FdCyd 80 mg + THU 6000 mg, N=1
  FdCyd urinary excretion over 0-24 hours of day 1: 0.058 (-) % dose
[2]
  Patients with a treatment-associated increase in the proportion of p16+CK+ CTCs: 77%
[3]
  Patients with increases in the proportion of p16-expressing V+ CTCs: 9%
DNA methylation
  FdCyd concentration giving inhibition of DNA methylation in vitro: ≥ 1 µM
[4]
  FdCyd bioavailability, previously established: 10%
[4]; intravenously administered FdCyd with THU, ref previous reports
  FdCyd clearance, previous reports: 142 mL/min/m^2
